# Source: paper PMC11882969 (Nature Communications, 2025)
# Where two headings read alike, the source gives them in different places.
# Assays:
# CB1 (rCB1) [1] = biological target: T1, CB1 (rCB1) (Rattus norvegicus, UniProt P20272); experiment: Single-point radioligand displacement screen; assay type: binding; details: 10 µM, 1 µM or 300 nM by cell colour (not visible)
# hCB1 = hCB1 (Homo sapiens, UniProt P21554); experiment: bioSensAll ebBRET signaling profiling, hCB1; assay type: cell-based; set-up: host or cells: HEK293SL cells, transient PEI transfection; details: for Barr2+GRK2 hCB1 response: Barr2+GRK2 biosensor; for Gi1 hCB1 / GoB hCB1: single replicate values, FigS6a; for EC50: hCB1 GoB; for Emax: normalized to CP-55,940
# hCB1, sequence (P21554 whole entry): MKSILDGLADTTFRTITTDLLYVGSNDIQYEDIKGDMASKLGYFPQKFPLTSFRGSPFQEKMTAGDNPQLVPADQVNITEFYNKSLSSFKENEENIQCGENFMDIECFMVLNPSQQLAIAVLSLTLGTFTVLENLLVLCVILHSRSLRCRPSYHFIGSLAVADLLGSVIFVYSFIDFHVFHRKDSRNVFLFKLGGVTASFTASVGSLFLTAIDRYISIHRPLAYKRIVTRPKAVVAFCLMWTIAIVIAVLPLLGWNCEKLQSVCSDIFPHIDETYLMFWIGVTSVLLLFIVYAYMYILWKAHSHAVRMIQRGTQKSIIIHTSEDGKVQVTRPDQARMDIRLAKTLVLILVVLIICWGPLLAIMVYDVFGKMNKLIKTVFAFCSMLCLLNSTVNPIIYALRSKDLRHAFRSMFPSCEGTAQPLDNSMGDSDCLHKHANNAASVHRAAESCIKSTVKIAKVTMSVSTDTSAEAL
# CB1 (rCB1) [2] = biological target: T1, CB1 (rCB1); experiment: Radioligand competition binding, [3H]-CP-55,940, rat brain membranes; details: rCB1
# T1 sequence (P20272 whole entry): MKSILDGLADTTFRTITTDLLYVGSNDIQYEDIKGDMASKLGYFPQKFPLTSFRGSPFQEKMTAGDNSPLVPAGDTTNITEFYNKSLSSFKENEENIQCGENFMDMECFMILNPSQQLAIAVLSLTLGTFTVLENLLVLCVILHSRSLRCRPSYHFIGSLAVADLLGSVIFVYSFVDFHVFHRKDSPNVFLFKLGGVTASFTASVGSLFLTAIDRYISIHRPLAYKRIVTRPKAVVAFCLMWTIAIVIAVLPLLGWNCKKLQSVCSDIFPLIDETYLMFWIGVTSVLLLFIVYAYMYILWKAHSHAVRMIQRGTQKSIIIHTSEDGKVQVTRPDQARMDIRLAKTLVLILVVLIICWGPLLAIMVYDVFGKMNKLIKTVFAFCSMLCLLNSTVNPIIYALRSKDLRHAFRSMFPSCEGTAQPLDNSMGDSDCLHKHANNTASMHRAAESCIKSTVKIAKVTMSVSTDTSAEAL
smiles,measurement,setting,value
Cn1nc(-c2nnc(C(C)(C)Oc3ccc(C(F)(F)F)cc3)o2)c2ccccc2c1=O [‘2153],"% 1H-CP-55,940 displacement (mean) from single point screen",CB1 (rCB1) [1],89.82%
same,Barr2+GRK2 hCB1 response,hCB1; Log [Compound] (M) -4.22186,52.3115
same,Barr2+GRK2 hCB1 response,hCB1; Log [Compound] (M) -4.63927,1.898
same,Barr2+GRK2 hCB1 response,hCB1; Log [Compound] (M) -5.05788,-31.9237
same,Barr2+GRK2 hCB1 response,hCB1; Log [Compound] (M) -5.47381,-49.7918
same,Barr2+GRK2 hCB1 response,hCB1; Log [Compound] (M) -5.89285,-32.2428
same,Barr2+GRK2 hCB1 response,hCB1; Log [Compound] (M) -6.31878,-30.3284
same,Barr2+GRK2 hCB1 response,hCB1; Log [Compound] (M) -6.72585,-23.6278
same,Barr2+GRK2 hCB1 response,hCB1; Log [Compound] (M) -7.14267,-46.282
same,Barr2+GRK2 hCB1 response,hCB1; Log [Compound] (M) -7.55284,-43.4104
same,Barr2+GRK2 hCB1 response,hCB1; Log [Compound] (M) -8,-60.3212
same,Barr2+GRK2 hCB1 response,hCB1; Log [Compound] (M) -8.22186,12.7465
same,Barr2+GRK2 hCB1 response,hCB1; Log [Compound] (M) -8.39794,-37.9861
same,Barr2+GRK2 hCB1 response,hCB1; Log [Compound] (M) -8.68787,-0.01644
same,Barr2+GRK2 hCB1 response,hCB1; Log [Compound] (M) -9.15521,-27.1376
same,Barr2+GRK2 hCB1 response,hCB1; Log [Compound] (M) -9.61989,-19.4799
same,Barr2+GRK2 hCB1 response,hCB1; Log [Compound] (M) -10.0969,-46.6011
same,Barr2+GRK2 hCB1 response,hCB1; Log [Compound] (M) -10.5529,-22.3515
same,Barr2+GRK2 hCB1 response,hCB1; Log [Compound] (M) -11.0177,-18.8417
same,Barr2+GRK2 hCB1 response,hCB1; Log [Compound] (M) -11.4949,-32.5619
same,Barr2+GRK2 hCB1 response,hCB1; Log [Compound] (M) -11.9208,-20.4371
same,Barr2+GRK2 hCB1 response,hCB1; Log [Compound] (M) -12.3979,-30.0093
same,Barr2+GRK2 hCB1 response,hCB1; Log [Compound] (M) -12.8861,-33.2
same,Barr2+GRK2 hCB1 response,hCB1; Log [Compound] (M) -13.3979,30.2955
same,Gi1 hCB1,hCB1; Log [Compound] (M) -4.22186,75.7197
same,GoB hCB1,hCB1; Log [Compound] (M) -4.22186,87.0618
same,Gi1 hCB1,hCB1; Log [Compound] (M) -4.63927,62.7492
same,GoB hCB1,hCB1; Log [Compound] (M) -4.63927,68.3981
same,Gi1 hCB1,hCB1; Log [Compound] (M) -5.05788,53.1046
same,GoB hCB1,hCB1; Log [Compound] (M) -5.05788,59.4743
same,Gi1 hCB1,hCB1; Log [Compound] (M) -5.47381,46.6906
same,GoB hCB1,hCB1; Log [Compound] (M) -5.47381,51.6096
same,Gi1 hCB1,hCB1; Log [Compound] (M) -5.89285,39.3106
same,GoB hCB1,hCB1; Log [Compound] (M) -5.89285,42.3906
same,Gi1 hCB1,hCB1; Log [Compound] (M) -6.31878,39.2789
same,GoB hCB1,hCB1; Log [Compound] (M) -6.31878,35.0814
same,Gi1 hCB1,hCB1; Log [Compound] (M) -6.72585,25.5166
same,GoB hCB1,hCB1; Log [Compound] (M) -6.72585,29.2133
same,Gi1 hCB1,hCB1; Log [Compound] (M) -7.14267,15.7294
same,GoB hCB1,hCB1; Log [Compound] (M) -7.14267,18.1713
same,Gi1 hCB1,hCB1; Log [Compound] (M) -7.55284,6.592
same,GoB hCB1,hCB1; Log [Compound] (M) -7.55284,8.536
same,Gi1 hCB1,hCB1; Log [Compound] (M) -8,0.6052
same,GoB hCB1,hCB1; Log [Compound] (M) -8,0.9487
same,Gi1 hCB1,hCB1; Log [Compound] (M) -8.22186,7.605
same,GoB hCB1,hCB1; Log [Compound] (M) -8.22186,6.383
same,Gi1 hCB1,hCB1; Log [Compound] (M) -8.39794,-1.77
same,GoB hCB1,hCB1; Log [Compound] (M) -8.39794,-8.426
same,Gi1 hCB1,hCB1; Log [Compound] (M) -8.68787,-5.112
same,GoB hCB1,hCB1; Log [Compound] (M) -8.68787,-5.249
same,Gi1 hCB1,hCB1; Log [Compound] (M) -9.15521,-4.764
same,GoB hCB1,hCB1; Log [Compound] (M) -9.15521,-4.208
same,Gi1 hCB1,hCB1; Log [Compound] (M) -9.61989,-4.051
same,GoB hCB1,hCB1; Log [Compound] (M) -9.61989,-5.197
same,Gi1 hCB1,hCB1; Log [Compound] (M) -10.0969,-5.445
same,GoB hCB1,hCB1; Log [Compound] (M) -10.0969,-5.371
same,Gi1 hCB1,hCB1; Log [Compound] (M) -10.5529,-5.27
same,GoB hCB1,hCB1; Log [Compound] (M) -10.5529,-5.926
same,Gi1 hCB1,hCB1; Log [Compound] (M) -11.0177,-5.413
same,GoB hCB1,hCB1; Log [Compound] (M) -11.0177,-5.284
same,Gi1 hCB1,hCB1; Log [Compound] (M) -11.4949,-5.698
same,GoB hCB1,hCB1; Log [Compound] (M) -11.4949,-6.413
same,Gi1 hCB1,hCB1; Log [Compound] (M) -11.9208,-5.872
same,GoB hCB1,hCB1; Log [Compound] (M) -11.9208,-5.041
same,Gi1 hCB1,hCB1; Log [Compound] (M) -12.3979,-4.415
same,GoB hCB1,hCB1; Log [Compound] (M) -12.3979,-7.09
same,Gi1 hCB1,hCB1; Log [Compound] (M) -12.8861,-6.854
same,GoB hCB1,hCB1; Log [Compound] (M) -12.8861,-5.666
same,Gi1 hCB1,hCB1; Log [Compound] (M) -13,-4.779
same,GoB hCB1,hCB1; Log [Compound] (M) -13,-5.6139
same,Gi1 hCB1,hCB1; Log [Compound] (M) cell empty,-2.087
same,GoB hCB1,hCB1; Log [Compound] (M) cell empty,-1.829
same,pEC50 [95% CI],hCB1; hCB1 Gi1,6.0 [5.2 – 6.4]
same,EC50,hCB1,2000 nM
same,EC50,hCB1; read-out: EC50 [95% CI],2060 nM
same,Emax,"hCB1; read-out: Emax [95% CI], hCB1 Gi1",89%
same,Emax,"hCB1; read-out: Emax [95% CI], hCB1 GoB",109%
same,pKi [95% CI],CB1 (rCB1) [2],6.79 [6.5 – 7.0]
